Source: ChEMBL document CHEMBL1201862, “PubChem BioAssay data set” (2004)
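Following 48 hours of exposure in 96-well plates, responses at five concentrations were used to interpolate endpoints linearly. GI50 is the concentration that inhibits growth by half.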 The source made the active and inactive calls. Cut-off read from the data, not from the text of the source: active = GI50 up to about 1.1 µM and inactive = higher. Non-standard residues stand in square brackets, D forms with d. Residues, ends and D or L forms follow the SMILES beside them. *: point of attachment. NMeF = CN[CH](Cc1ccccc1)C(=O)O; NMeV = CN[CH](C(=O)O)C(C)C; Boc = CC(C)(C)OC(=O)*

How the values were obtained:
Test in all cases: NCI anticancer screen, dose series, 48 h
786-0 = system: 786-0
CCRF-CEM = system: CCRF-CEM
HCT-116 = system: HCT-116
HOP-62 = system: HOP-62
HT-29 = system: HT-29
IGROV-1 = system: IGROV-1
M14 = system: M14
Malme-3M = system: Malme-3M
NCI-H226 = system: NCI-H226
NCI-H460 = system: NCI-H460
NCI-H522 = system: NCI-H522
OVCAR-5 = system: OVCAR-5
OVCAR-8 = system: OVCAR-8
RXF 393 = system: RXF 393
SK-MEL-28 = system: SK-MEL-28
SK-MEL-5 = system: SK-MEL-5
SNB-75 = system: SNB-75
U-251 = system: U-251
HOP-92 = system: HOP-92

| Structure (SMILES) | GI50 (786-0) | GI50 (CCRF-CEM) | GI50 (HCT-116) | GI50 (HOP-62) | GI50 (HT-29) | GI50 (IGROV-1) | GI50 (M14) | GI50 (Malme-3M) | GI50 (NCI-H226) | GI50 (NCI-H460) | GI50 (NCI-H522) | GI50 (OVCAR-5) | GI50 (OVCAR-8) | GI50 (RXF 393) | GI50 (SK-MEL-28) | GI50 (SK-MEL-5) | GI50 (SNB-75) | GI50 (U-251) | GI50 (HOP-92) |
| --- | --- | --- | --- | --- | --- | --- | --- | --- | --- | --- | --- | --- | --- | --- | --- | --- | --- | --- | --- |
| N=C1CSC2=NC3=C(CCC/C3=C\c3ccccc3)C(c3ccccc3)N12 (configuration not stated) | 5.65 µM (inactive) | 2.24 µM (inactive) | 3.54 µM (inactive) | 11 µM (inactive) | 2.97 µM (inactive) | 5.6 µM (inactive) | 3.3 µM (inactive) | 17.2 µM (inactive) | 6.38 µM (inactive) | 3.42 µM (inactive) | 2.61 µM (inactive) | 6.53 µM (inactive) | 5.92 µM (inactive) | 4.5 µM (inactive) | 7.5 µM (inactive) | 6.31 µM (inactive) | 10.6 µM (inactive) | 3.42 µM (inactive) | – |
| CCC1C(C)c2c([nH]c3ccccc23)C2C(=O)N(c3ccccc3)C(=O)C21 (configuration not stated) | 16.9 µM (inactive) | 18 µM (inactive) | – | – | 12.5 µM (inactive) | 3.67 µM (inactive) | 17.8 µM (inactive) | 16.6 µM (inactive) | – | 14.3 µM (inactive) | – | – | 14.5 µM (inactive) | 12.7 µM (inactive) | 17.7 µM (inactive) | 15.4 µM (inactive) | 11.4 µM (inactive) | 14.6 µM (inactive) | – |
| Cc1ccnc2nc(-c3ccc4ccccc4c3)cc(O)c12 | 1.52 µM (inactive) | 1.04 µM (active) | – | 2.08 µM (inactive) | 0.8 µM (active) | 1.2 µM (inactive) | 1.22 µM (inactive) | 1.14 µM (inactive) | 2.13 µM (inactive) | – | 0.601 µM (active) | 6.3 µM (inactive) | 2.83 µM (inactive) | – | 1.76 µM (inactive) | – | 1.03 µM (active) | – | 0.592 µM (active) |
| CC(C)C1CC[C@@H](C)C[C@@]1(O)CC(N)=O (some centres not stated) | > 100 µM (inactive) | – | > 100 µM (inactive) | – | > 100 µM (inactive) | > 100 µM (inactive) | > 100 µM (inactive) | > 100 µM (inactive) | > 100 µM (inactive) | > 100 µM (inactive) | > 100 µM (inactive) | > 100 µM (inactive) | > 100 µM (inactive) | – | > 100 µM (inactive) | > 100 µM (inactive) | 66.2 µM (inactive) | > 100 µM (inactive) | < 0.01 µM (active) |
| O=C(NCCCCNc1cccccc1=O)OCc1ccccc1 | > 100 µM (inactive) | > 100 µM (inactive) | > 100 µM (inactive) | > 100 µM (inactive) | > 100 µM (inactive) | > 100 µM (inactive) | > 100 µM (inactive) | > 100 µM (inactive) | > 100 µM (inactive) | > 100 µM (inactive) | > 100 µM (inactive) | > 100 µM (inactive) | 54 µM (inactive) | – | > 100 µM (inactive) | 48.1 µM (inactive) | > 100 µM (inactive) | > 100 µM (inactive) | – |
| CC(C)OP(=O)(OC(C)C)/C(=N/Nc1ccc([N+](=O)[O-])cc1)Nc1ccccc1 | 24.1 µM (inactive) | 18.4 µM (inactive) | 16.4 µM (inactive) | 29.7 µM (inactive) | – | – | 20.2 µM (inactive) | 19.8 µM (inactive) | 16.4 µM (inactive) | 33 µM (inactive) | 17.9 µM (inactive) | > 100 µM (inactive) | 34.8 µM (inactive) | – | 23.9 µM (inactive) | 12.2 µM (inactive) | 36.6 µM (inactive) | 21.2 µM (inactive) | 17.5 µM (inactive) |
| COC(=O)C1CC2c3c(c4ccccc4n3C)CC(C1=O)N2C (configuration not stated) | 47.5 µM (inactive) | 34.6 µM (inactive) | 33 µM (inactive) | – | 42.1 µM (inactive) | 52.8 µM (inactive) | 37.8 µM (inactive) | 43.9 µM (inactive) | 50.6 µM (inactive) | 45.3 µM (inactive) | 17.3 µM (inactive) | > 100 µM (inactive) | 34.5 µM (inactive) | – | 51.9 µM (inactive) | 25.1 µM (inactive) | 31.5 µM (inactive) | 49.8 µM (inactive) | 74.3 µM (inactive) |
| C#Cc1c(C)c(/C=C/C(C)=C/C(=O)OC)n(C)c1C | > 100 µM (inactive) | 51.9 µM (inactive) | 65.8 µM (inactive) | > 100 µM (inactive) | 58.1 µM (inactive) | > 100 µM (inactive) | > 100 µM (inactive) | > 100 µM (inactive) | > 100 µM (inactive) | – | 71.8 µM (inactive) | > 100 µM (inactive) | 71.9 µM (inactive) | – | – | – | – | > 100 µM (inactive) | 25 µM (inactive) |
| N#CCC(=O)N1CCCOCCC1 | > 100 µM (inactive) | > 100 µM (inactive) | > 100 µM (inactive) | > 100 µM (inactive) | 34.1 µM (inactive) | > 100 µM (inactive) | > 100 µM (inactive) | > 100 µM (inactive) | – | > 100 µM (inactive) | – | > 100 µM (inactive) | – | > 100 µM (inactive) | > 100 µM (inactive) | > 100 µM (inactive) | – | > 100 µM (inactive) | – |
| CC(C)N1CN(C(C(=O)N[C@@H]2C(=O)N3C2SC(C)(C)C3C(=O)O)c2ccc(O)cc2)CSC1=S (some centres not stated) | > 100 µM (inactive) | 58.7 µM (inactive) | > 100 µM (inactive) | > 100 µM (inactive) | > 100 µM (inactive) | > 100 µM (inactive) | > 100 µM (inactive) | > 100 µM (inactive) | – | > 100 µM (inactive) | 41 µM (inactive) | > 100 µM (inactive) | > 100 µM (inactive) | – | > 100 µM (inactive) | > 100 µM (inactive) | > 100 µM (inactive) | > 100 µM (inactive) | > 100 µM (inactive) |
| c1cc2ccc1C1NCCCN1CCN1CCCNC1c1ccc(cc1)C1NCCCN1CCN1CCCNC21 (configuration not stated) | > 100 µM (inactive) | 41.8 µM (inactive) | 42.6 µM (inactive) | > 100 µM (inactive) | > 100 µM (inactive) | > 100 µM (inactive) | 99.8 µM (inactive) | 44.4 µM (inactive) | – | 77.3 µM (inactive) | 23.1 µM (inactive) | > 100 µM (inactive) | > 100 µM (inactive) | – | > 100 µM (inactive) | > 100 µM (inactive) | > 100 µM (inactive) | 54.2 µM (inactive) | > 100 µM (inactive) |
| CN(C)c1ccccc1CC(c1c[nH]c2ccccc12)c1c[nH]c2ccccc12 | 12.8 µM (inactive) | 9.51 µM (inactive) | 11.2 µM (inactive) | 6.62 µM (inactive) | 5.38 µM (inactive) | 15.8 µM (inactive) | 11.4 µM (inactive) | 17.1 µM (inactive) | 12.1 µM (inactive) | 4.72 µM (inactive) | 12.9 µM (inactive) | 16.9 µM (inactive) | 11.2 µM (inactive) | 7.91 µM (inactive) | – | 15.3 µM (inactive) | 10.3 µM (inactive) | 12.1 µM (inactive) | – |
| COc1cc(C(=O)C(CO)Oc2ccccc2OC)ccc1O (configuration not stated) | > 100 µM (inactive) | > 100 µM (inactive) | > 100 µM (inactive) | > 100 µM (inactive) | > 100 µM (inactive) | > 100 µM (inactive) | > 100 µM (inactive) | > 100 µM (inactive) | > 100 µM (inactive) | > 100 µM (inactive) | > 100 µM (inactive) | > 100 µM (inactive) | > 100 µM (inactive) | – | > 100 µM (inactive) | > 100 µM (inactive) | 67 µM (inactive) | > 100 µM (inactive) | 88.7 µM (inactive) |
| CC(C)C(NC(=O)OC(C)(C)C)C(=O)N(C)C(Cc1ccccc1)C(=O)N(C)C(C(=O)O)C(C)C (stereo not drawn) (Boc-Val-[NMeF]-[NMeV]-OH; configuration not given here) | > 100 µM (inactive) | > 100 µM (inactive) | > 100 µM (inactive) | > 100 µM (inactive) | > 100 µM (inactive) | > 100 µM (inactive) | > 100 µM (inactive) | > 100 µM (inactive) | > 100 µM (inactive) | > 100 µM (inactive) | 71.1 µM (inactive) | – | > 100 µM (inactive) | – | > 100 µM (inactive) | > 100 µM (inactive) | – | > 100 µM (inactive) | – |
| COc1ccc(OC)c(/C(C)=N/NC(N)=S)c1 | > 100 µM (inactive) | > 100 µM (inactive) | > 100 µM (inactive) | > 100 µM (inactive) | > 100 µM (inactive) | > 100 µM (inactive) | > 100 µM (inactive) | > 100 µM (inactive) | > 100 µM (inactive) | > 100 µM (inactive) | – | > 100 µM (inactive) | > 100 µM (inactive) | > 100 µM (inactive) | > 100 µM (inactive) | > 100 µM (inactive) | > 100 µM (inactive) | > 100 µM (inactive) | > 100 µM (inactive) |
| [O-][n+]1c2ccccc2[n+]([O-])c2cc(Br)ccc21 | 10.1 µM (inactive) | 0.0507 µM (active) | 70.1 µM (inactive) | 45 µM (inactive) | 18.6 µM (inactive) | 5.81 µM (inactive) | 17.2 µM (inactive) | 23.2 µM (inactive) | 21.6 µM (inactive) | 10.4 µM (inactive) | 12.9 µM (inactive) | 27.8 µM (inactive) | 14.8 µM (inactive) | 18.1 µM (inactive) | 54.1 µM (inactive) | 13.3 µM (inactive) | 26.3 µM (inactive) | 14.6 µM (inactive) | – |
| COc1cc(C2C(Cl)C(=O)N2NC(=O)c2ccc(NC(C)=O)cc2)ccc1O (configuration not stated) | > 100 µM (inactive) | > 100 µM (inactive) | > 100 µM (inactive) | > 100 µM (inactive) | > 100 µM (inactive) | > 100 µM (inactive) | > 100 µM (inactive) | > 100 µM (inactive) | > 100 µM (inactive) | > 100 µM (inactive) | > 100 µM (inactive) | > 100 µM (inactive) | > 100 µM (inactive) | > 100 µM (inactive) | > 100 µM (inactive) | > 100 µM (inactive) | – | > 100 µM (inactive) | > 100 µM (inactive) |
